Data taken from PubChem BioAssay AID330 (DTP/NCI, 2004).
Where “and” joins values, the source holds several entries; their conditions need not be identical. Equal values may be shown once. Inconclusive results and toxic doses are left out.

Tested on: P388 leukemia ip, CD2F1 mice, survival T/C
Assay: NCI In Vivo Anticancer Drug Screen. Data for tumor model P388 Leukemia (intraperitoneal) in CD2F1 (CDF1) mice
Conditions: endpoint: median survival time, higher = longer survival
In short: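 Mice carrying the transplanted tumor received test compound or vehicle. Survival was recorded in each group, and the value is the treated-group measurement divided by that of the vehicle-treated control group.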

[1] = dose: 100.0 mg/kg/injection, schedule: Q04DX002 (ip), vehicle: Klucel (hydroxypropylcellulose) (HPC)
[2] = dose: 200.0 mg/kg/injection, schedule: Q04DX002 (ip), vehicle: Klucel (hydroxypropylcellulose) (HPC)
[3] = dose: 400.0 mg/kg/injection, schedule: Q04DX002 (ip), vehicle: Klucel (hydroxypropylcellulose) (HPC)
[4] = dose: 50.0 mg/kg/injection, schedule: Q01DX009 (ip), vehicle: saline with Tween-80
[5] = dose: 100.0 mg/kg/injection, schedule: Q01DX009 (ip), vehicle: saline with Tween-80
[6] = dose: 100.0 mg/kg/injection, schedule: Q04DX003 (ip), vehicle: saline with Tween-80
[7] = dose: 200.0 mg/kg/injection, schedule: Q04DX003 (ip), vehicle: saline with Tween-80
[8] = dose: 400.0 mg/kg/injection, schedule: Q04DX003 (ip), vehicle: saline with Tween-80

With `CCOC(=O)N1CCc2cc(OC)c(OC)cc2/C1=C/c1cc(Br)sc1Br` the T/C [1] was 102 % of control, the T/C [2] was 103 % of control and the T/C [3] was 105 % of control.

`O=c1[nH]c2c(c(O)c1-c1ccccc1)CCCN2` was tested, and the T/C (dose: 100.0 mg/kg/injection, schedule: Q04DX003 (ip), vehicle: Klucel (hydroxypropylcellulose) (HPC)) was 102 % of control, the T/C (dose: 200.0 mg/kg/injection, schedule: Q04DX003 (ip), vehicle: Klucel (hydroxypropylcellulose) (HPC)) was 100 % of control and the T/C (dose: 400.0 mg/kg/injection, schedule: Q04DX003 (ip), vehicle: Klucel (hydroxypropylcellulose) (HPC)) was 110 % of control.

For `O=C(O)CN(CCN(CC(=O)O)CC(=O)O)CC(=O)O.[O]=[Mo]1[O][Mo](=[O])[O]1`, the T/C (dose: 50.0 mg/kg/injection, schedule: Q01DX009 (ip), vehicle: saline) was 89 % of control and the T/C (dose: 100.0 mg/kg/injection, schedule: Q01DX009 (ip), vehicle: saline) was 90 % of control.

`Cc1c2cc[n+](CCCCCCCC[n+]3ccc4c(C)c5[nH]c6ccccc6c5cc4c3C)c(C)c2cc2c1[nH]c1ccccc12` was tested, and the T/C (dose: 0.78 mg/kg/injection, schedule: Q04DX003 (ip), vehicle: distilled water + Tween-80) was 106 % of control, the T/C (dose: 1.56 mg/kg/injection, schedule: Q04DX003 (ip), vehicle: distilled water + Tween-80) was 106 % of control and the T/C (dose: 3.13 mg/kg/injection, schedule: Q04DX003 (ip), vehicle: distilled water + Tween-80) was 109 % of control. The T/C (dose: 6.25 mg/kg/injection, schedule: Q04DX003 (ip), vehicle: distilled water + Tween-80) was 103 % of control and 113 % of control, the T/C (dose: 12.5 mg/kg/injection, schedule: Q04DX003 (ip), vehicle: distilled water + Tween-80) was 105 % of control and 116 % of control and 122 % of control and the T/C (dose: 25.0 mg/kg/injection, schedule: Q04DX003 (ip), vehicle: distilled water + Tween-80) was 116 % of control and 121 % of control and 123 % of control. For the same compound, the T/C (dose: 100.0 mg/kg/injection, schedule: Q04DX003 (ip), vehicle: distilled water + Tween-80) was 121 % of control.

`Cn1cc(N)c(=O)[nH]c1=O` was tested, and the T/C (dose: 50.0 mg/kg/injection, schedule: Q01DX005 (ip), vehicle: saline) was 98 % of control, the T/C (dose: 100.0 mg/kg/injection, schedule: Q01DX005 (ip), vehicle: saline) was 101 % of control and the T/C (dose: 200.0 mg/kg/injection, schedule: Q01DX005 (ip), vehicle: saline) was 102 % of control.

In the case of `O=NNc1c2c(nc3ccccc13)CCCC2`, the T/C (dose: 3.12 mg/kg/injection, schedule: Q01DX009 (ip), vehicle: water) is reported as 94 % of control, the T/C (dose: 6.25 mg/kg/injection, schedule: Q01DX009 (ip), vehicle: water) is reported as 94 % of control and the T/C (dose: 12.5 mg/kg/injection, schedule: Q01DX009 (ip), vehicle: water) is reported as 103 % of control. The T/C (dose: 25.0 mg/kg/injection, schedule: Q01DX009 (ip), vehicle: water) was 100 % of control and 111 % of control and 112 % of control, the T/C (dose: 50.0 mg/kg/injection, schedule: Q01DX009 (ip), vehicle: water) was 100 % of control and 110 % of control and 123 % of control and the T/C (dose: 100.0 mg/kg/injection, schedule: Q01DX009 (ip), vehicle: water) was 100 % of control and 106 % of control. For the same compound, the T/C (dose: 200.0 mg/kg/injection, schedule: Q01DX009 (ip), vehicle: water) was 89 % of control.

In the case of `CCN(CC)CCSC1OC(=O)c2ccccc21` (configuration not stated), the T/C (dose: 1.25 mg/kg/injection, schedule: Q01DX009 (ip), vehicle: saline) is reported as 104 % of control, the T/C (dose: 2.5 mg/kg/injection, schedule: Q01DX009 (ip), vehicle: saline) is reported as 103 % of control and the T/C (dose: 5.0 mg/kg/injection, schedule: Q01DX009 (ip), vehicle: saline) is reported as 109 % of control. The T/C (dose: 10.0 mg/kg/injection, schedule: Q01DX009 (ip), vehicle: saline) was 109 % of control.

For `Cc1ccc(S(=O)(=O)N(CCOc2c3occc3cc3ccc(=O)oc23)CCN(CCN(CCOc2c3occc3cc3ccc(=O)oc23)S(=O)(=O)c2ccc(C)cc2)S(=O)(=O)c2ccc(C)cc2)cc1`, the T/C (dose: 100.0 mg/kg/injection, schedule: Q01DX001 (ip), vehicle: saline with Tween-80) was 87 % of control and the T/C (dose: 200.0 mg/kg/injection, schedule: Q01DX001 (ip), vehicle: saline with Tween-80) was 86 % of control.

`O=C1CCSC(=S)N1c1ccc(C(F)(F)F)cc1` was tested, and the T/C (dose: 50.0 mg/kg/injection, schedule: Q01DX009 (ip), vehicle: suspension in saline) was 90 % of control, the T/C (dose: 100.0 mg/kg/injection, schedule: Q01DX009 (ip), vehicle: suspension in saline) was 97 % of control and the T/C (dose: 200.0 mg/kg/injection, schedule: Q01DX009 (ip), vehicle: suspension in saline) was 94 % of control.

With `CNC(=O)N(C)c1cc(N(C)C)nc(OC)n1` the T/C (dose: 4.5 mg/kg/injection, schedule: Q01DX005 (ip), vehicle: saline + alcohol) was 100 % of control, the T/C (dose: 9.0 mg/kg/injection, schedule: Q01DX005 (ip), vehicle: saline + alcohol) was 90 % of control and the T/C (dose: 18.0 mg/kg/injection, schedule: Q01DX005 (ip), vehicle: saline + alcohol) was 98 % of control. For the same compound, the T/C (dose: 36.0 mg/kg/injection, schedule: Q01DX005 (ip), vehicle: saline + alcohol) was 98 % of control and the T/C (dose: 72.0 mg/kg/injection, schedule: Q01DX005 (ip), vehicle: saline + alcohol) was 101 % of control.

With `CN1C2C=C(c3ccc(Cl)cc3)CC1CC2` (configuration not stated) the T/C (dose: 6.25 mg/kg/injection, schedule: Q01DX005 (ip), vehicle: Klucel (hydroxypropylcellulose) (HPC)) was 106 % of control, the T/C (dose: 6.25 mg/kg/injection, schedule: Q01DX005 (ip), vehicle: saline) was 103 % of control and the T/C (dose: 12.5 mg/kg/injection, schedule: Q01DX005 (ip), vehicle: Klucel (hydroxypropylcellulose) (HPC)) was 100 % of control. The T/C (dose: 12.5 mg/kg/injection, schedule: Q01DX005 (ip), vehicle: saline) was 114 % of control, the T/C (dose: 25.0 mg/kg/injection, schedule: Q01DX005 (ip), vehicle: Klucel (hydroxypropylcellulose) (HPC)) was 109 % of control and the T/C (dose: 25.0 mg/kg/injection, schedule: Q01DX005 (ip), vehicle: saline) was 100 % of control.

For `CCN(C)c1cc(=O)c2ccc3ccccc3c2o1`, the T/C [4] was 101 % of control and the T/C [5] was 105 % of control.

For `c1ccc2nc(-c3cc4ccccc4s3)ccc2c1`, the T/C [5] was 100 % of control and 104 % of control, the T/C [6] was 90 % of control and the T/C (dose: 200.0 mg/kg/injection, schedule: Q01DX009 (ip), vehicle: saline with Tween-80) was 100 % of control and 90 % of control. The T/C [7] was 90 % of control, the T/C (dose: 400.0 mg/kg/injection, schedule: Q01DX009 (ip), vehicle: saline with Tween-80) was 109 % of control and 95 % of control and the T/C [8] was 90 % of control.

With `CC(/C=C/c1ccco1)=N\NC(=S)Nc1ccc(Br)cc1` the T/C [1] was 97 % of control, the T/C [2] was 97 % of control and the T/C [3] was 92 % of control.

In the case of `[N-]=[N+]=CC(=O)C1OC12C1CC3CC(C1)CC2C3` (configuration not stated), the T/C (dose: 25.0 mg/kg/injection, schedule: Q01DX005 (ip), vehicle: saline with Tween-80) is reported as 86 % of control, the T/C (dose: 50.0 mg/kg/injection, schedule: Q01DX005 (ip), vehicle: saline with Tween-80) is reported as 105 % of control and the T/C (dose: 100.0 mg/kg/injection, schedule: Q01DX005 (ip), vehicle: saline with Tween-80) is reported as 113 % of control. For the same compound, the T/C (dose: 200.0 mg/kg/injection, schedule: Q01DX005 (ip), vehicle: saline with Tween-80) was 113 % of control.

`CN(C)C(=S)c1ccccc1NS(=O)(=O)c1ccccc1` was tested, and the T/C (dose: 100.0 mg/kg/injection, schedule: Q04DX003 (ip), vehicle: saline) was 106 % of control, the T/C (dose: 200.0 mg/kg/injection, schedule: Q04DX003 (ip), vehicle: saline) was 100 % of control and the T/C (dose: 400.0 mg/kg/injection, schedule: Q04DX003 (ip), vehicle: saline) was 97 % of control.

With `N/C(=C\c1cnc2ccccc2n1)c1ccccc1Cl` the T/C (dose: 60.0 mg/kg/injection, schedule: Q01DX005 (ip), vehicle: Klucel (hydroxypropylcellulose) (HPC)) was 91 % of control and the T/C (dose: 120.0 mg/kg/injection, schedule: Q01DX005 (ip), vehicle: Klucel (hydroxypropylcellulose) (HPC)) was 89 % of control.

For `CCCCCCC(=O)/C=C/c1ccc(OC(=O)c2ccc(OC)cc2)cc1`, the T/C (dose: 6.25 mg/kg/injection, schedule: Q01DX009 (ip), vehicle: saline with Tween-80) was 100 % of control, the T/C (dose: 12.5 mg/kg/injection, schedule: Q01DX009 (ip), vehicle: saline with Tween-80) was 105 % of control and the T/C (dose: 25.0 mg/kg/injection, schedule: Q01DX009 (ip), vehicle: saline with Tween-80) was 98 % of control. For the same compound, the T/C [4] was 91 % of control and the T/C [5] was 89 % of control.

In the case of `O=[n+]1c2ccccc2n([O-])c2cc(Cl)ccc21`, the T/C (dose: 25.0 mg/kg/injection, schedule: Q04DX003 (ip), vehicle: saline with Tween-80) is reported as 112 % of control, the T/C [4] is reported as 150 % of control and the T/C (dose: 50.0 mg/kg/injection, schedule: Q04DX003 (ip), vehicle: saline with Tween-80) is reported as 112 % of control. The T/C [5] was 154 % of control and 174 % of control, the T/C [6] was 107 % of control and the T/C [7] was 114 % of control. The T/C [8] was 114 % of control.
